Data taken from PMC3118852 (Chemical research in toxicology, 2011).

How the values were obtained:
recombinant human AChE = conditions: pH 8; cited from earlier work
paraoxonase 1 = conditions: cited from earlier work
CBDP-phosphonylated AChE = CBDP-phosphonylated AChE (Homo sapiens, UniProt P22303); assay type: biochemical; conditions: pH 8
human BChE [1] = target: T1, human BChE (Homo sapiens, UniProt P06276); conditions: pH 8; cited from earlier work
human BChE [2] = target: T1, human BChE
rat brain AChE = conditions: pH 7.4; cited from earlier work
CBDP-phosphonylated BChE = CBDP-phosphonylated BChE (Homo sapiens, UniProt P06276); assay type: biochemical; conditions: pH 8
[3] = pH 8
human AChE = human AChE (Homo sapiens, UniProt P22303); assay type: biochemical
BChE = conditions: cited from earlier work

T1 sequence (P06276 29-602): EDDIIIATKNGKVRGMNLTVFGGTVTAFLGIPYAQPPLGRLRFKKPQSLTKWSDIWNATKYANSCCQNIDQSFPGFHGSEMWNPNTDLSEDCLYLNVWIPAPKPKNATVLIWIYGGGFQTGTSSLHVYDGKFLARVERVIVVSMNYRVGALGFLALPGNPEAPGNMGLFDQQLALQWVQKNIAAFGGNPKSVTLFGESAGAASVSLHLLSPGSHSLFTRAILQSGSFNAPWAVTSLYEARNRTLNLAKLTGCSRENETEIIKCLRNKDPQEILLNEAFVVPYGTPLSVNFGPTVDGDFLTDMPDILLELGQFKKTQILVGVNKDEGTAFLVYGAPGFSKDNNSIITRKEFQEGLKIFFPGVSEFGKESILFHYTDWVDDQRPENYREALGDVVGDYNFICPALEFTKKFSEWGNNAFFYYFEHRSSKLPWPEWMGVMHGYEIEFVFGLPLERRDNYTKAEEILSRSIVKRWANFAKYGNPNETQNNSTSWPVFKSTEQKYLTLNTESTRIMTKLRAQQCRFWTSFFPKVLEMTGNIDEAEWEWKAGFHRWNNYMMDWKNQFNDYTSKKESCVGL
Chain of human AChE (P22303 32-614): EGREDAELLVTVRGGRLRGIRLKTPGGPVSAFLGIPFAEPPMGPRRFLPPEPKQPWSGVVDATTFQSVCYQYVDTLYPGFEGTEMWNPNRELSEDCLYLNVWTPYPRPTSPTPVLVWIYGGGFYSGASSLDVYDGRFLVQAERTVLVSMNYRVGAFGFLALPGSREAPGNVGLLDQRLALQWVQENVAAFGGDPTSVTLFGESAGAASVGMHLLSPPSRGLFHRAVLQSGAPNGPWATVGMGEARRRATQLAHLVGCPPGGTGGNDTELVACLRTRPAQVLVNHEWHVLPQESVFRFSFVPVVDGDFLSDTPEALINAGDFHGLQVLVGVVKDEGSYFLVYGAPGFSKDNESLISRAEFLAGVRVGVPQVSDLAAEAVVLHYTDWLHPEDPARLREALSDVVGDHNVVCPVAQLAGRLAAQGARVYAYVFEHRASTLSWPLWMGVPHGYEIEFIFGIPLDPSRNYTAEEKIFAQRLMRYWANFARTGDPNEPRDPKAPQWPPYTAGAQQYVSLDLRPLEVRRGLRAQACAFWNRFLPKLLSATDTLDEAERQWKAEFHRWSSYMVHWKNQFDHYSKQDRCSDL
Chain of CBDP-phosphonylated BChE (P06276 29-602): as the sequence (P06276 29-602) above
Chain of CBDP-phosphonylated AChE (P22303 32-614): as the sequence (P22303 32-614) above

Compound	bimolecular rate constant of inhibition (recombinant human AChE)	reaction with paraoxonase 1 (paraoxonase 1)	time to loss of reactivatibility (aging) following inhibition (CBDP-phosphonylated AChE)	bimolecular rate constant of inhibition (human BChE [1])	K'I, dissociation constant of the Michaelis complex, BChE form E′ (human BChE [2])	ki values for BChE (both forms) (human BChE [2])	slow phase reactivity of hBChE (form E′) relative to hAChE (form E′) (human BChE [2])	kp, phosphorylation rate constant, BChE form E (kp=ki.KI) (human BChE [2]; human)	Ki (human BChE [2]; read-out: KI, dissociation constant of the Michaelis complex, BChE form E)	bimolecular rate constant of inhibition (rat brain AChE)	time to loss of reactivatibility (aging) following inhibition (CBDP-phosphonylated BChE)	hydrolysis rate [3]	K'I, dissociation constant of the Michaelis complex, AChE form E′ (human AChE)	kobs, fast phase of inhibition (independent of CBDP concentration) (human AChE)	Ki (human AChE; read-out: KI, dissociation constant of the Michaelis complex, AChE form E)	ki, reactivity with BChE (BChE)
Cc1ccccc1OP1(=O)OCc2ccccc2O1 (centres unmarked) [CBDP, 2-(o-cresyl)-4H-1,3,2-benzodioxaphosphoran-2-one]	35 M⁻¹ s⁻¹	does not react	less than 15 s	330 M⁻¹ s⁻¹	> 10 nM	10^7–10^8 M^−1 min^−1	235±110 fold	> 1.5 min⁻¹	> 10 nM	18.3 M⁻¹ s⁻¹	less than 15 s	0.0126 min⁻¹	> 5.5 µM	0.37 ± 0.15 min⁻¹	< 100 nM	
CCOP(=O)(OCC)Oc1cc(C)nc(C(C)C)n1 [diazoxon]																1.28e+06 M⁻¹ s⁻¹
chlorpyrifos-oxon																2.83e+07 M⁻¹ s⁻¹
